In patent publication US6825172B2, “3-descladinosyl-6-O-carbamoyl and 6-O-carbonoyl macrolide antibacterial agents” (Janssen Pharmaceutica, NV, priority 2002, dated 2004):
Values after ≈ are worked out from the molar mass of the structure shown.

What was measured:
Test in all cases: MIC, microdilution broth method (NCCLS)
Assay type in all cases: cell-based
E. coli OC2605 = settings: Escherichia coli, Table 1, 6-Carbamoyl-3-Acyl Macrolide Derivatives, read-out: MIC Values, A: E. coli OC2605
Procedure: (§1) Minimal inhibitory concentration (MIC) has been an indicator of in vitro antibacterial activity widely used in the art. The in vitro antimicrobial activity of the compounds was determined by the microdilution broth method following the test method from the National Committee for Clinical Laboratory Standards (NCCLS). This method is described in the NCCLS Document M7-A4, Vol.17, No.2, “Methods for Dilution Antimicrobial Susceptibility Test for Bacteria that Grow Aerobically—Fourth Edition”, which is incorporated herein by reference.
(§2) In this method two-fold serial dilutions of drug in cation adjusted Mueller-Hinton broth are added to wells in microdilution trays. The test organisms are prepared by adjusting the turbidity of actively growing broth cultures so that the final concentration of test organism after it is added to the wells is approximately 5×10^4 CFU/well.
(§3) Following inoculation of the microdilution trays, the trays are incubated at 35 °C for 16-20 hours and then read. […] The amount of growth in the wells containing the test compound is compared with the amount of growth in the growth-control wells (no test compound) used in each tray. As set forth in Table 1, compounds of the present invention were tested against a variety of Gram positive and Gram negative pathogenic bacteria resulting in a range of activities depending on the organism tested.

E. faecalis ATCC29212 = settings: Enterococcus faecalis, Table 1, 6-Carbamoyl-3-Acyl Macrolide Derivatives, read-out: MIC Values, C: E. faecalis ATCC29212
Procedure: as §1, §2, §3

H. influenzae ATCC49247 = settings: Haemophilus influenzae, Table 1, 6-Carbamoyl-3-Acyl Macrolide Derivatives, read-out: MIC Values, E: H. influenzae ATCC49247
Procedure: as §1, §2, §3

S. aureus ATCC29213 = settings: Staphylococcus aureus, Table 1, 6-Carbamoyl-3-Acyl Macrolide Derivatives, read-out: MIC Values, B: S. aureus ATCC29213
Procedure: as §1, §2, §3

S. pneumoniae ATCC49619 = settings: Streptococcus pneumoniae, Table 1, 6-Carbamoyl-3-Acyl Macrolide Derivatives, read-out: MIC Values, D: S. pneumoniae ATCC49619
Procedure: as §1, §2, §3

| SMILES | MIC (E. coli OC2605) [µg/mL] | MIC (E. faecalis ATCC29212) [µg/mL] | MIC (H. influenzae ATCC49247) [µg/mL] | MIC (S. aureus ATCC29213) [µg/mL] | MIC (S. pneumoniae ATCC49619) [µg/mL] |
| --- | --- | --- | --- | --- | --- |
| CC[C@H]1OC(=O)[C@H](C)[C@@H](OC(=O)COCc2ccccc2)[C@H](C)[C@@H](O[C@@H]2O[C@H](C)C[C@H](N(C)C)[C@H]2O)[C@](C)(OC(=O)NC/C=C/c2ccc(-c3ncccn3)cc2)C[C@@H](C)C(=O)[C@H](C)[C@H]2NC(=O)O[C@@]21C [Compound 16] | > 16 | 0.5 (≈ 0.507 µM) | 8 (≈ 8.11 µM) | 1 (≈ 1.01 µM) | 0.06 (≈ 0.0608 µM) |
| CC[C@H]1OC(=O)[C@H](C)[C@@H](OC(=O)Cc2cccnc2)[C@H](C)[C@@H](O[C@@H]2O[C@H](C)C[C@H](N(C)C)[C@H]2OC(C)=O)[C@](C)(OC(=O)NCc2cnc3ccccc3c2)C[C@@H](C)C(=O)[C@H](C)[C@H]2NC(=O)O[C@@]21C [Compound 22] | 16 (≈ 16.9 µM) | 0.25 (≈ 0.264 µM) | 2 (≈ 2.11 µM) | 0.5 (≈ 0.528 µM) | 0.03 (≈ 0.0317 µM) |
| CC[C@H]1OC(=O)[C@H](C)[C@@H](OC(=O)Cc2cccnc2)[C@H](C)[C@@H](O[C@@H]2O[C@H](C)C[C@H](N(C)C)[C@H]2O)[C@](C)(OC(=O)NC/C=C/C=C/c2cccnc2)C[C@@H](C)C(=O)[C@H](C)[C@H]2NC(=O)O[C@@]21C [Compound 23] | 16 (≈ 17.7 µM) | 0.25 (≈ 0.276 µM) | 4 (≈ 4.41 µM) | 1 (≈ 1.1 µM) | 0.03 (≈ 0.0331 µM) |
| CC[C@H]1OC(=O)[C@H](C)[C@@H](OC(=O)Cc2ccccn2)[C@H](C)[C@@H](O[C@@H]2O[C@H](C)C[C@H](N(C)C)[C@H]2O)[C@](C)(OC(=O)NC/C=C/C=C/c2cccnc2)C[C@@H](C)C(=O)[C@H](C)[C@H]2NC(=O)O[C@@]21C [Compound 25, 2-Pyridineacetic acid, (3aS,4R,7R,8S,9S,10R, 11R,13R,15R,15aR)-4-ethyltetradecahydro-3a,7,9,11,13,15-hexamethyl-2,6,14-trioxo-11-[[[[(2E,4E)-5-(3-pyridinyl)-2,4-pentadienyl]amino]carbonyl]oxy]-10-[[3,4,6-trideoxy-3-(dimethylamino)-β-D-xylo-hexopyranosyl]oxy]-2H-oxacyclotetradecino[4,3-d]oxazol-8-yl ester] | 8 (≈ 8.83 µM) | 0.25 (≈ 0.276 µM) | 2 (≈ 2.21 µM) | 0.5 (≈ 0.552 µM) | 0.03 (≈ 0.0331 µM) |
| CC[C@H]1OC(=O)[C@H](C)[C@@H](OC(=O)Cc2cccnc2)[C@H](C)[C@@H](O[C@@H]2O[C@H](C)C[C@H](N(C)C)[C@H]2O)[C@](C)(OC(=O)NC/C=C/C=C/c2ccccn2)C[C@@H](C)C(=O)[C@H](C)[C@H]2NC(=O)O[C@@]21C [Compound 27] | 8 (≈ 8.83 µM) | 0.25 (≈ 0.276 µM) | 1 (≈ 1.1 µM) | 0.5 (≈ 0.552 µM) | 0.03 (≈ 0.0331 µM) |
| CC[C@H]1OC(=O)[C@H](C)[C@@H](OC(=O)Cc2cccnc2)[C@H](C)[C@@H](O[C@@H]2O[C@H](C)C[C@H](N(C)C)[C@H]2O)[C@](C)(OC(=O)NC/C=C/c2ccc(Br)nc2)C[C@@H](C)C(=O)[C@H](C)[C@H]2NC(=O)O[C@@]21C [Compound 28] | 8 (≈ 8.34 µM) | 0.25 (≈ 0.261 µM) | 1 (≈ 1.04 µM) | 0.5 (≈ 0.521 µM) | < 0.015 |
| CC[C@H]1OC(=O)[C@H](C)[C@@H](OC(=O)Cc2ccccn2)[C@H](C)[C@@H](O[C@@H]2O[C@H](C)C[C@H](N(C)C)[C@H]2O)[C@](C)(OC(=O)NC/C=C/c2ccc(C#N)nc2)C[C@@H](C)C(=O)[C@H](C)[C@H]2NC(=O)O[C@@]21C [Compound 29] | 16 (≈ 17.7 µM) | 0.25 (≈ 0.276 µM) | 2 (≈ 2.21 µM) | 0.5 (≈ 0.552 µM) | 0.03 (≈ 0.0331 µM) |
| CC[C@H]1OC(=O)[C@H](C)[C@@H](OC(=O)Cc2cccnc2)[C@H](C)[C@@H](O[C@@H]2O[C@H](C)C[C@H](N(C)C)[C@H]2O)[C@](C)(OC(=O)NC/C=C/c2cnc3ccccc3c2)C[C@@H](C)C(=O)[C@H](C)[C@H]2NC(=O)O[C@@]21C [Compound 30] | 16 (≈ 17.2 µM) | 0.5 (≈ 0.538 µM) | 4 (≈ 4.3 µM) | 1 (≈ 1.08 µM) | 0.03 (≈ 0.0323 µM) |
| CC[C@H]1OC(=O)[C@H](C)[C@@H](OC(=O)Cc2ccccn2)[C@H](C)[C@@H](O[C@@H]2O[C@H](C)C[C@H](N(C)C)[C@H]2O)[C@](C)(OC(=O)NC/C=C/c2cnc3ccccc3c2)C[C@@H](C)C(=O)[C@H](C)[C@H]2NC(=O)O[C@@]21C [Compound 32] | 8 (≈ 8.6 µM) | 0.25 (≈ 0.269 µM) | 2 (≈ 2.15 µM) | 0.5 (≈ 0.538 µM) | 0.03 (≈ 0.0323 µM) |
| CC[C@H]1OC(=O)[C@H](C)[C@@H](OC(=O)Cc2cccnc2)[C@H](C)[C@@H](O[C@@H]2O[C@H](C)C[C@H](N(C)C)[C@H]2O)[C@](C)(OC(=O)NC/C=C/c2ccnc3ccccc23)C[C@@H](C)C(=O)[C@H](C)[C@H]2NC(=O)O[C@@]21C [Compound 34] | 8 (≈ 8.6 µM) | 0.25 (≈ 0.269 µM) | 2 (≈ 2.15 µM) | 0.5 (≈ 0.538 µM) | 0.03 (≈ 0.0323 µM) |

Next, values leading:

| MIC (E. coli OC2605) [µg/mL] | MIC (E. faecalis ATCC29212) [µg/mL] | MIC (H. influenzae ATCC49247) [µg/mL] | MIC (S. aureus ATCC29213) [µg/mL] | MIC (S. pneumoniae ATCC49619) [µg/mL] | SMILES |
| --- | --- | --- | --- | --- | --- |
| 16 (≈ 19.3 µM) | 0.25 (≈ 0.301 µM) | 1 (≈ 1.2 µM) | 0.5 (≈ 0.602 µM) | 0.06 (≈ 0.0722 µM) | CC[C@H]1OC(=O)[C@H](C)[C@@H](OC(=O)C(C)C)[C@H](C)[C@@H](O[C@@H]2O[C@H](C)C[C@H](N(C)C)[C@H]2O)[C@](C)(OC(=O)NC/C=C/c2cccnc2)C[C@@H](C)C(=O)[C@H](C)[C@H]2NC(=O)O[C@@]21C [Compound 17] |
| > 16 | 0.5 (≈ 0.578 µM) | 8 (≈ 9.25 µM) | 4 (≈ 4.62 µM) | 0.12 (≈ 0.139 µM) | CC[C@H]1OC(=O)[C@H](C)[C@@H](OC(=O)c2ccccc2)[C@H](C)[C@@H](O[C@@H]2O[C@H](C)C[C@H](N(C)C)[C@H]2O)[C@](C)(OC(=O)NC/C=C/c2cccnc2)C[C@@H](C)C(=O)[C@H](C)[C@H]2NC(=O)O[C@@]21C [Compound 18] |
| 16 (≈ 18.2 µM) | 0.25 (≈ 0.284 µM) | 1 (≈ 1.14 µM) | 1 (≈ 1.14 µM) | 0.06 (≈ 0.0682 µM) | CC[C@H]1OC(=O)[C@H](C)[C@@H](OC(=O)Cc2cccnc2)[C@H](C)[C@@H](O[C@@H]2O[C@H](C)C[C@H](N(C)C)[C@H]2O)[C@](C)(OC(=O)NC/C=C/c2cccnc2)C[C@@H](C)C(=O)[C@H](C)[C@H]2NC(=O)O[C@@]21C [Compound 19] |
| 8 (≈ 9.09 µM) | 0.25 (≈ 0.284 µM) | 1 (≈ 1.14 µM) | 0.5 (≈ 0.568 µM) | 0.03 (≈ 0.0341 µM) | CC[C@H]1OC(=O)[C@H](C)[C@@H](OC(=O)Cc2ccccn2)[C@H](C)[C@@H](O[C@@H]2O[C@H](C)C[C@H](N(C)C)[C@H]2O)[C@](C)(OC(=O)NC/C=C/c2cccnc2)C[C@@H](C)C(=O)[C@H](C)[C@H]2NC(=O)O[C@@]21C [Compound 20] |
| 8 (≈ 9.1 µM) | 0.25 (≈ 0.284 µM) | 2 (≈ 2.28 µM) | 0.5 (≈ 0.569 µM) | 0.06 (≈ 0.0683 µM) | CC[C@H]1OC(=O)[C@H](C)[C@@H](OC(=O)Cc2cccnc2)[C@H](C)[C@@H](O[C@@H]2O[C@H](C)C[C@H](N(C)C)[C@H]2O)[C@](C)(OC(=O)NC/C=C/c2ccccc2)C[C@@H](C)C(=O)[C@H](C)[C@H]2NC(=O)O[C@@]21C [Compound 21] |
| > 16 | 0.25 (≈ 0.292 µM) | 2 (≈ 2.33 µM) | 0.5 (≈ 0.583 µM) | < 0.015 | CC[C@H]1OC(=O)[C@H](C)[C@@H](OC(=O)C(C)C)[C@H](C)[C@@H](O[C@@H]2O[C@H](C)C[C@H](N(C)C)[C@H]2O)[C@](C)(OC(=O)NC/C=C/C=C/c2cccnc2)C[C@@H](C)C(=O)[C@H](C)[C@H]2NC(=O)O[C@@]21C [Compound 24] |
| 16 (≈ 18.7 µM) | 0.25 (≈ 0.292 µM) | 2 (≈ 2.33 µM) | 1 (≈ 1.17 µM) | 0.06 (≈ 0.07 µM) | CC[C@H]1OC(=O)[C@H](C)[C@@H](OC(=O)C(C)C)[C@H](C)[C@@H](O[C@@H]2O[C@H](C)C[C@H](N(C)C)[C@H]2O)[C@](C)(OC(=O)NC/C=C/C=C/c2ccccn2)C[C@@H](C)C(=O)[C@H](C)[C@H]2NC(=O)O[C@@]21C [Compound 26] |
| 8 (≈ 9.08 µM) | 0.25 (≈ 0.284 µM) | 4 (≈ 4.54 µM) | 0.5 (≈ 0.567 µM) | 0.03 (≈ 0.034 µM) | CC[C@H]1OC(=O)[C@H](C)[C@@H](OC(=O)C(C)C)[C@H](C)[C@@H](O[C@@H]2O[C@H](C)C[C@H](N(C)C)[C@H]2O)[C@](C)(OC(=O)NC/C=C/c2cnc3ccccc3c2)C[C@@H](C)C(=O)[C@H](C)[C@H]2NC(=O)O[C@@]21C [Compound 31, Propanoic acid, 2-methyl-, (3aS,4R,7R,8S,9S,10R,11R,13R,15R,15aR)-4-ethyltetradecahydro-3a,7,9,11,13,15-hexamethyl-2,6,14-trioxo-11-[[[[(2E)-3-(3-quinolinyl)-2-propenyl]amino]carbonyl]oxy]-10-[[3,4,6-trideoxy-3-(dimethylamino)-β-D-xylo-hexopyranosyl]oxy]-2H-oxacyclotetradecino[4,3-d]oxazol-8-yl ester] |
| 16 (≈ 18.2 µM) | 0.25 (≈ 0.284 µM) | 2 (≈ 2.27 µM) | 0.5 (≈ 0.567 µM) | 0.03 (≈ 0.034 µM) | CC[C@H]1OC(=O)[C@H](C)[C@@H](OC(=O)C(C)C)[C@H](C)[C@@H](O[C@@H]2O[C@H](C)C[C@H](N(C)C)[C@H]2O)[C@](C)(OC(=O)NC/C=C/c2ccnc3ccccc23)C[C@@H](C)C(=O)[C@H](C)[C@H]2NC(=O)O[C@@]21C [Compound 33] |
